Source: ChEMBL document CHEMBL1201862, “PubChem BioAssay data set” (2004)
Active and inactive are the calls of the source.

Key:
Beta-galactosidase = Beta-galactosidase (Escherichia coli, UniProt Q8VNN2); experiment: detection-enzyme interference by beta-gal modulators – biochemical, E. coli enzyme, set 3, artefact control for CCR6 antagonist project, dose response (AID 504712); type: functional
[1] = target: Glucose-6-phosphate 1-dehydrogenase (Homo sapiens, UniProt P11413); experiment: inhibition of Homo sapiens G6PD, dose series – biochemical, fluorescence, selectivity assay for P. falciparum G6PD inhibitor project, dose response (AID 504792); type: functional
Sequence of Glucose-6-phosphate 1-dehydrogenase (P11413 whole entry): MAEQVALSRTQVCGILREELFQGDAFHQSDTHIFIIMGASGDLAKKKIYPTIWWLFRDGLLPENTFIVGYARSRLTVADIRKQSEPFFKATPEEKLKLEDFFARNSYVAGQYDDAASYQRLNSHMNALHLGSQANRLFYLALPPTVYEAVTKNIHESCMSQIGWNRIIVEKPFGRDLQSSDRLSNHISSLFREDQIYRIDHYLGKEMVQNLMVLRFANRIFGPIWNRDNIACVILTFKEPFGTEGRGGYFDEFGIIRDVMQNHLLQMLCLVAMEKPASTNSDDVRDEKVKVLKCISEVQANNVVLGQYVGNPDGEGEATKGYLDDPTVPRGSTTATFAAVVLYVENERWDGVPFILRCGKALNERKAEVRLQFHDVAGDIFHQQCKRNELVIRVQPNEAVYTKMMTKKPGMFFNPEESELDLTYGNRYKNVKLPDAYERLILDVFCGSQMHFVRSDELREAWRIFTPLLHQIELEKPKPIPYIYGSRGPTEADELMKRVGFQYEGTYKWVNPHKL

[2] = target: Induced myeloid leukemia cell differentiation protein Mcl-1 (Homo sapiens, UniProt Q07820); type: functional
[3] = target: Heat shock protein HSP 90-alpha (Homo sapiens, UniProt P07900); type: functional, organism-based
[4] = target: Alkaline phosphatase, placental type (Homo sapiens, UniProt P05187); experiment: human placental alkaline phosphatase inhibition – biochemical, luminescence, confirmation (AID 1512); type: functional
Sequence of Alkaline phosphatase, placental type (P05187 whole entry): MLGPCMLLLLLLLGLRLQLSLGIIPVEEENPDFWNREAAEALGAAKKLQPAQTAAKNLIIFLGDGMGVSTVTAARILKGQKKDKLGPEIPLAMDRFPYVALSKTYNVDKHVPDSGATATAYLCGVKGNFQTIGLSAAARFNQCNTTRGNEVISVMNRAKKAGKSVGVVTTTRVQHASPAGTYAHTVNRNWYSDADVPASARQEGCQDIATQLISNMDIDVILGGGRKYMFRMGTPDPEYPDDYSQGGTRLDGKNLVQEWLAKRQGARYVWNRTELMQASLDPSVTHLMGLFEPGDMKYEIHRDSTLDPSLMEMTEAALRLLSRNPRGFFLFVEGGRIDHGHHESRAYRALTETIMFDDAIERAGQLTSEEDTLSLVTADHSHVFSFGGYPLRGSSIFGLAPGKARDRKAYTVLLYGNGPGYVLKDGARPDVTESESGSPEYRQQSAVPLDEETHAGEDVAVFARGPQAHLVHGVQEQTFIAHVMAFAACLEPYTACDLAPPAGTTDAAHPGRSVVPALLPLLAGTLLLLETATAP

[5] = target: Glyceraldehyde-3-phosphate dehydrogenase (Homo sapiens, UniProt P04406)
[6] = target: T1, Alkaline phosphatase, tissue-nonspecific isozyme (Homo sapiens, UniProt P05186); experiment: potency against alkaline phosphatase TNAP – biochemical, luminescent, dose response, SAR follow-up (AID 1056)
T1 sequence (P05186 whole entry): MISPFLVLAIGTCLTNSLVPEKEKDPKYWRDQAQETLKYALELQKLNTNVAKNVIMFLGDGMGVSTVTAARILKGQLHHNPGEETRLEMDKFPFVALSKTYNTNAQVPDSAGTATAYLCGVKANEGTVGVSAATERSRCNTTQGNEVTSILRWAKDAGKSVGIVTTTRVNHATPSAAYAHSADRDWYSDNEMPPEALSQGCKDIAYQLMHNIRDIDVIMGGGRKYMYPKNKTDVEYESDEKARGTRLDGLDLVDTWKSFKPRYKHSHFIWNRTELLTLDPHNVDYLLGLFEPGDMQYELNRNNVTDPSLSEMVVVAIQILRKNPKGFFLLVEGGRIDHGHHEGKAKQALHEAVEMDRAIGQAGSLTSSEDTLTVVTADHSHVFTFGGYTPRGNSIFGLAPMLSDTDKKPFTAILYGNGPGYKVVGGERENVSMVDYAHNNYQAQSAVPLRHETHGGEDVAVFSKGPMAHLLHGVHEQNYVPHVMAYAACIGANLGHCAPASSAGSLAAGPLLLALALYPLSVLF

[7] = target: T2, G-protein coupled receptor 55 (Homo sapiens, UniProt Q9Y2T6); experiment: selective activators of receptor GPR55 – imaging, U2OS cells, beta-arrestin-GFP redistribution, primary screen (AID 1961); type: functional
T2 sequence (Q9Y2T6 whole entry): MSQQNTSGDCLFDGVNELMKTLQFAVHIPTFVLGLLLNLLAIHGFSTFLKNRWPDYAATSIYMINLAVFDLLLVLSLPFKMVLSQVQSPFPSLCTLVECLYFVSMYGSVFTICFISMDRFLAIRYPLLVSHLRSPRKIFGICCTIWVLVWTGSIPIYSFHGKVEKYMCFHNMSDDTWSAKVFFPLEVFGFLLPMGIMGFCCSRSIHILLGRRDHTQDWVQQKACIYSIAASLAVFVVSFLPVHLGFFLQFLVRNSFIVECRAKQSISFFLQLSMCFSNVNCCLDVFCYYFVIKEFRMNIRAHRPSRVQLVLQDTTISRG

[8] = target: T2, G-protein coupled receptor 55; experiment: SAR analysis of selective Agonists of GPR55 using an Image-Based Assay - Set 2. [Related pubchem assays (depositor defined):AID1961, AID1965]; type: functional
[9] = target: T3, G-protein coupled receptor 35 (Homo sapiens, UniProt Q9HC97); experiment: SAR analysis of Agonists of the GPR35 Receptor using an Image-Based Assay - Set 3. [Related pubchem assays (depositor defined):AID1961, AID1965]; type: functional
T3 sequence (Q9HC97 whole entry): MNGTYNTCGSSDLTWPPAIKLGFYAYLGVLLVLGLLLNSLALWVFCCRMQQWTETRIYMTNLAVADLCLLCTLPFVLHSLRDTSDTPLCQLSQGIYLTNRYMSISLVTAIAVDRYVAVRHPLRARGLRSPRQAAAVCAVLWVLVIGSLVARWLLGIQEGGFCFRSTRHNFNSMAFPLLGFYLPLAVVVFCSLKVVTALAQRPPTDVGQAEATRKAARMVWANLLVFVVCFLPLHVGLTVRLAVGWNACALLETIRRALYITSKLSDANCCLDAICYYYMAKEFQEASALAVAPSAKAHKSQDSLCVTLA

Cannabinoid receptor 2 [10] = target: T4, Cannabinoid receptor 2 (Homo sapiens, UniProt P34972); experiment: SAR analysis of antagonists of the Cannabinoid Receptor 2 using an Image-Based Assay - Set 2. [Related pubchem assays (depositor defined):AID1961, AID1965]; type: functional
T4 sequence (P34972 whole entry): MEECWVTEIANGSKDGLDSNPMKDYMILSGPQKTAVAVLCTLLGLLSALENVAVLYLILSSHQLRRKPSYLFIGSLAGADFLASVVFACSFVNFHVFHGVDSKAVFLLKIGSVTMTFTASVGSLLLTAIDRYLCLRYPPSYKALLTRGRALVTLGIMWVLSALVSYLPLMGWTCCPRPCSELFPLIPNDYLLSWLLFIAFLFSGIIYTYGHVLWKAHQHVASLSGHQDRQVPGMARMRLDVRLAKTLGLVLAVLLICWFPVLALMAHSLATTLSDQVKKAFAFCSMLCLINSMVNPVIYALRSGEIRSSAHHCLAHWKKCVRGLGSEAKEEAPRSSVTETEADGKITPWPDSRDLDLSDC

Cannabinoid receptor 1 [11] = target: T5, Cannabinoid receptor 1 (Homo sapiens, UniProt P21554); experiment: SAR analysis of agonists of the Cannabinoid Receptor 1 using an Image-Based Assay - Set 3. [Related pubchem assays (depositor defined):AID1961, AID1965]; type: functional
T5 sequence (P21554 whole entry): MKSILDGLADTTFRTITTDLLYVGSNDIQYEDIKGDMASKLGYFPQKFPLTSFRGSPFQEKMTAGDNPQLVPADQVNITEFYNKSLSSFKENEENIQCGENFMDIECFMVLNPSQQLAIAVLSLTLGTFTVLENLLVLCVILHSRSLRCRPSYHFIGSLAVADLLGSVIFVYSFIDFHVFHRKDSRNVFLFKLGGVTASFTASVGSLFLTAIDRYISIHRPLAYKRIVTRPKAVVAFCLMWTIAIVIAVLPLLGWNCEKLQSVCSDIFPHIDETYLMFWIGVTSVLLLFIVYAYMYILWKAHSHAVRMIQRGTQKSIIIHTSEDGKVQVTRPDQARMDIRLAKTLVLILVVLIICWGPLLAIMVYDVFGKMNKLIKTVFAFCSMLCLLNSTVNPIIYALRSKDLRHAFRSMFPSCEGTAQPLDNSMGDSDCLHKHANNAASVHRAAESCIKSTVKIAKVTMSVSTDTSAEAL

Cannabinoid receptor 1 [12] = target: T5, Cannabinoid receptor 1; experiment: SAR analysis of antagonists of the Cannabinoid Receptor 1 using an Image-Based Assay - Set 3. [Related pubchem assays (depositor defined):AID1961, AID1965]; type: functional
Cannabinoid receptor 2 [13] = target: T4, Cannabinoid receptor 2; experiment: SAR analysis of agonists of the Cannabinoid Receptor 2 using an Image-Based Assay - Set 2. [Related pubchem assays (depositor defined):AID1961, AID1965]; type: functional
[14] = target: T3, G-protein coupled receptor 35; experiment: SAR analysis of Antagonists of the GPR35 Receptor using an Image-Based Assay - Set 4. [Related pubchem assays (depositor defined):[…]]; type: functional
[15] = NIH3T3 cell viability loss – ATP luminescence, mouse fibroblasts, counter-screen, dose response (AID 2010); type: functional, cell-based;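 also: cells exposed to compound for about 90 hours before reading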
SN12K1 = experiment: cells; type: functional; details: Homo sapiens
[16] = THP-1 cell cytotoxicity, dose response, cytotoxicity control for non-replicating M. tuberculosis project (AID 489025); type: functional
cells [17] = type: functional
[18] = test system: Streptococcus sp. 'group A'; experiment: Streptococcus pyogenes SK(-)GAS viability under kanamycin – luminescence, BacTiterGlo, confirmation, counter-screen for streptokinase expression inhibitor project, dose response (AID 1900); type: functional, organism-based
HEK293 = experiment: EBV LMP1 TES2 canonical NF-kB signalling blockers – cell-based, HEK293, luciferase, cherry-pick, dose response (AID 588343); type: functional; details: Homo sapiens
[19] = HepG2 cell cytotoxicity, dose response, cytotoxicity control for non-replicating M. tuberculosis project (AID 489018); type: functional; details: Mycobacterium tuberculosis
P388 = experiment: cells; type: functional; details: Mus musculus
[20] = Trypanosoma cruzi growth suppression in host cells – NIH3T3 host cells, beta-gal luminescence, confirmation (AID 2044); type: functional, cell-based;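 also: intracellular parasites grown in NIH/3T3 mouse fibroblasts as host cells; luminescent beta-galactosidase reporter signal from transgenic T. cruzi replicating inside host cells; inhibitors lower the luminescence signal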
[21] = microbe, parasite or virus in culture; type: functional; details: Mycobacterium tuberculosis
cells [22] = experiment: cells
Streptococcus = experiment: GAS UMAA2166 growth inhibition – luminescence, BacTiterGlo, counter-screen for streptokinase expression inhibitor project, dose response (AID 1915); type: functional, organism-based;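 also: potency for reduction of bacterial viability or growth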
P388/ADR = experiment: cells; type: functional; details: Mus musculus
[23] = target: Polyadenylate-binding protein 1 (Homo sapiens, UniProt P11940); experiment: blockers of PABP interaction with poly(A) – biochemical, fluorescence polarization, […] (AID 2014)
[24] = target: DNA dC->dU-editing enzyme APOBEC-3G (Homo sapiens, UniProt Q9HC16); type: functional;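 also: Dose-response counterscreen measuring inhibition of APOBEC3G DNA deaminase activity, run while confirming APOBEC3A inhibitors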
Sequence of DNA dC->dU-editing enzyme APOBEC-3G (Q9HC16 whole entry): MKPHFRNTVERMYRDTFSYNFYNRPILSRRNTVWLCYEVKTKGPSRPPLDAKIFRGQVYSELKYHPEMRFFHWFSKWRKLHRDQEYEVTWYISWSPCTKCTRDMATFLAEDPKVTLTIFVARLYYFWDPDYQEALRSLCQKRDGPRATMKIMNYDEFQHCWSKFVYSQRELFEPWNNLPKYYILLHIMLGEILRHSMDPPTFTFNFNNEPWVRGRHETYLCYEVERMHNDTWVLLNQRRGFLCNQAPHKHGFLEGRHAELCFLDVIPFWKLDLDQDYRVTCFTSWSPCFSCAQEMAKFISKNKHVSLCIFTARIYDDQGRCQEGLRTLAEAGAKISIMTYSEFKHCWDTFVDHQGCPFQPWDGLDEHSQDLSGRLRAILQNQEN

[25] = target: DNA dC->dU-editing enzyme APOBEC-3A (Homo sapiens, UniProt P31941); experiment: Dose Response confirmation of small molecule APOBEC3A DNA Deaminase Inhibitors via a fluorescence-based single-stranded DNA deaminase assay. [Related pubchem assays (depositor defined):AID493011, AID493024]; type: functional
Sequence of DNA dC->dU-editing enzyme APOBEC-3A (P31941 whole entry): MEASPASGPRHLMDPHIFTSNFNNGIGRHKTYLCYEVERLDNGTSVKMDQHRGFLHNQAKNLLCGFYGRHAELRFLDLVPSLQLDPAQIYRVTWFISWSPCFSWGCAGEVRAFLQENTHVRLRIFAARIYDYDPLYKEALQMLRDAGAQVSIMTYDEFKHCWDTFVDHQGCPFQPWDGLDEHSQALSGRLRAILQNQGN

[26] = target: Eukaryotic translation initiation factor 4H (Homo sapiens, UniProt Q15056); experiment: eIF4H binding inhibition – biochemical, uHTS, fluorescence polarization, translation initiation inhibitor project, primary screen (AID 2012)
Trypsin = Trypsin (Sus scrofa, UniProt P00761); experiment: trypsin protease activity blockade – biochemical, quenched peptide fluorescence, cherry-pick, selectivity assay for Rce1 protease inhibitor project, dose response (AID 488789)
Sequence of Trypsin (P00761 whole entry, the tested form may be a part): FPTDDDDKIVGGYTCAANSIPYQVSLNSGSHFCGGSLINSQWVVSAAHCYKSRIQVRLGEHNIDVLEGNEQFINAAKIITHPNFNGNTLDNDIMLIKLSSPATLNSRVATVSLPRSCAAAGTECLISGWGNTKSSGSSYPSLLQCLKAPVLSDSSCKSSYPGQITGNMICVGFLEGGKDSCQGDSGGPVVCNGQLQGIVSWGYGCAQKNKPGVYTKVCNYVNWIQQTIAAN

[27] = target: T6, RNA-binding protein pos-1 (Caenorhabditis elegans, UniProt G5EF15); experiment: disruptors of C. elegans POS-1 RNA interaction – biochemical, fluorescence polarization, dose response (AID 1964);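 also: purified POS-1 fused to maltose binding protein made in E. coli; potency of compounds blocking POS-1 binding to fluorescent RNA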
T6 sequence (G5EF15 whole entry): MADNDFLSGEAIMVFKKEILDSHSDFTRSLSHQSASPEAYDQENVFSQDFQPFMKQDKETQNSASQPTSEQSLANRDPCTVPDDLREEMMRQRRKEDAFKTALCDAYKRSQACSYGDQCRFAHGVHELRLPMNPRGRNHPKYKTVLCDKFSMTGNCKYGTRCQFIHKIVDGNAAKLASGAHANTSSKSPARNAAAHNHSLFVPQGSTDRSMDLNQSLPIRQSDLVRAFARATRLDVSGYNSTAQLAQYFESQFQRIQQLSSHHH

[28] = target: T7, Zinc finger protein mex-5 (Caenorhabditis elegans, UniProt Q9XUB2); experiment: potency of MEX-5 RNA-binding blockers – biochemical, C. elegans, fluorescence polarization, dose response (AID 1960)
T7 sequence (Q9XUB2 whole entry): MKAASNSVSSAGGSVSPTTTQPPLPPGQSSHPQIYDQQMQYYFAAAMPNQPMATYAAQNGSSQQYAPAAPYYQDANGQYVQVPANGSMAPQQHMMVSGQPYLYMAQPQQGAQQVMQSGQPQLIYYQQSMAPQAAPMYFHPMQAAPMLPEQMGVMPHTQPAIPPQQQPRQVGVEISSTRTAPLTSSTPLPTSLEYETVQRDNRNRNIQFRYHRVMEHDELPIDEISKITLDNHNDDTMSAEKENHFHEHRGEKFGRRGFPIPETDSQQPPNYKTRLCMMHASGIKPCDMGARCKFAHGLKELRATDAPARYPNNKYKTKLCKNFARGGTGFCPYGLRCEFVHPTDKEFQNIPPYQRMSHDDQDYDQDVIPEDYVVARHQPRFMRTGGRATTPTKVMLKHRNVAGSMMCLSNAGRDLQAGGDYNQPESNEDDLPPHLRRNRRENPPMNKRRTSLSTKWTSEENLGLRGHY

[29] = target: DNA repair and recombination protein RAD54-like (Homo sapiens, UniProt Q92698); experiment: RAD54 Holliday junction migration blockers – biochemical, fluorescence, cherry-picked samples, dose series, confirmation (AID 651657); type: functional
Sequence of DNA repair and recombination protein RAD54-like (Q92698 whole entry): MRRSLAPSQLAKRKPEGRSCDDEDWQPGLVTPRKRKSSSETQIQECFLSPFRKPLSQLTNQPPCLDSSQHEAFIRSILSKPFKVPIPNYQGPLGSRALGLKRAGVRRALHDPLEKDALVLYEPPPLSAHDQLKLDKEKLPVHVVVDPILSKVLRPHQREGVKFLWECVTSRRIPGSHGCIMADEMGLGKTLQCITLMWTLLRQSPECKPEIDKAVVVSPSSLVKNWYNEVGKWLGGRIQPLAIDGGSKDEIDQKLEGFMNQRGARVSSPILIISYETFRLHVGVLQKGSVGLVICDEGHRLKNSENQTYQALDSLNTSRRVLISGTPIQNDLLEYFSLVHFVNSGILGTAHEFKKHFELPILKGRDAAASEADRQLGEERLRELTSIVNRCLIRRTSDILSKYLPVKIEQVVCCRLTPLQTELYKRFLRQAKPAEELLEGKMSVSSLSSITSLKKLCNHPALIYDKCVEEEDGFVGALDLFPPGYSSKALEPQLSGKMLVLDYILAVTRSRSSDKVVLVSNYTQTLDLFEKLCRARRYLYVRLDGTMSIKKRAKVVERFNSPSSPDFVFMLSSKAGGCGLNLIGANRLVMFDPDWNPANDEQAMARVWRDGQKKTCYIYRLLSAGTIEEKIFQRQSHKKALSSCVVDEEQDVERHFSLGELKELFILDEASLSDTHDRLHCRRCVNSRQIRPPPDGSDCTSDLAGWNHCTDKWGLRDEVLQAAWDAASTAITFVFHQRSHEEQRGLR

Vero [30] = experiment: Vero cell viability after compound exposure – synthesized analogs, set II, cytotoxicity control for West Nile virus antiviral project, SAR follow-up (AID 2402); type: functional, Chlorocebus sabaeus; details: Chlorocebus sabaeus, Vero
[31] = A Cell Based Assay for the Identification of Probe candidate Compounds with Anti- Venezuelan Equine Encephalitis virus. [Related pubchem assays: 2409, 2419, 1621, 2238, 2405, 2024, 2065, 2402, 2414, 1635, 1650, 2244 ]; type: functional
Vero [32] = experiment: host cell viability loss, Vero E6 – synthesized analogs, cytotoxicity control for West Nile virus antiviral project, SAR follow-up (AID 2244); type: functional; details: Chlorocebus sabaeus
Vero [33] = experiment: Vero 76 cell viability after compound exposure – Vero 76 cells, synthesized analogs, cytotoxicity control for West Nile virus antiviral project, SAR follow-up (AID 2414); type: functional, Chlorocebus sabaeus; details: Chlorocebus sabaeus, Vero
[34] = target: T8, Ubiquitin-conjugating enzyme E2 N (Homo sapiens, UniProt P61088); type: functional;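 also: Dose-response confirmation in a TR-FRET assay detecting UBC13-driven polyubiquitin chain formation, inhibition measured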
T8 sequence (P61088 whole entry): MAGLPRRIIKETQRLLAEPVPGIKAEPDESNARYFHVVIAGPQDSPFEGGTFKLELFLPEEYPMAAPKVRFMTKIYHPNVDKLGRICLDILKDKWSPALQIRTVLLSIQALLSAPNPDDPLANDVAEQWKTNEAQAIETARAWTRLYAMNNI

Estrogen receptor beta = Estrogen receptor beta (Homo sapiens, UniProt Q92731);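 also: recombinant ER-beta bound to coactivator SRC1 peptide in presence of estradiol agonist; inhibitors block coactivator peptide binding and lower the FRET signal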
Sequence of Estrogen receptor beta (Q92731 whole entry): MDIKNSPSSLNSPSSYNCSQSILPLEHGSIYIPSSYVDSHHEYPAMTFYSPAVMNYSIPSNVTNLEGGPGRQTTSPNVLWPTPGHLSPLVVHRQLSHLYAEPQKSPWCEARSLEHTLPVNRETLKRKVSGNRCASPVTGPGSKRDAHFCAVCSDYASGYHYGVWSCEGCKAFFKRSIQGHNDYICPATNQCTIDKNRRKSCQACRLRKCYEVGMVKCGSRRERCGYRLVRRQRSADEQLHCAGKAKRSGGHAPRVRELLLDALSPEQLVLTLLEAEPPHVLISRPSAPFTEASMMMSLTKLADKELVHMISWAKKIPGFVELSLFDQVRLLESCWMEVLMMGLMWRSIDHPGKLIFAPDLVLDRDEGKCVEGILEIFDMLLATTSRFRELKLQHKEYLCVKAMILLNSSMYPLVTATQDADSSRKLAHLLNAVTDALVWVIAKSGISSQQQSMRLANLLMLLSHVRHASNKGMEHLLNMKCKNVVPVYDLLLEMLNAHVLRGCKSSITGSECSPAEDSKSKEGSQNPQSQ

Bcl-2-like protein 10 = Bcl-2-like protein 10 (Homo sapiens, UniProt Q9HD36); experiment: Bcl-B/TR3 peptide binding disruption – biochemical, fluorescence polarization, FITC-TR3 peptide, selectivity assay for Bfl-1 inhibitor project, primary screen (AID 748);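 also: fluorescence polarization from a fluorescein-labelled TR3 peptide binding purified Bcl-B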

## Cc1ccc(NC(=O)c2cc(N3C(=O)C=CC3=O)ccc2Cl)cc1C
Beta-galactosidase
  IC50: > 66.6 µM (inactive)
[1]
  IC50: 50 µM (inactive)
[2]
  IC50: 5.4 µM (active)
[3]
  AC50: 1.5 µM (active)

## CCCc1nn(C(C)=O)c2c1C(=O)CC(C)(C)C2
[4]
  IC50: > 100 µM (inactive)
[5]
  IC50: > 100 µM (not active)
[6]
  IC50: 19.1 µM (active)

## O=C(CSc1nc2ccccc2o1)N1c2ccccc2Sc2ccccc21
[7]
  EC50: > 32 µM (inactive)

## CN(C)S(=O)(=O)c1ccc(N2CCCC2)c(C(=O)N2CCN(c3ccccc3)CC2)c1
[8]
  EC50: 1.67 µM (active)
[9]
  EC50: > 32 µM (inactive)
Cannabinoid receptor 2 [10]
  IC50: > 32 µM (inactive)
Cannabinoid receptor 1 [11]
  EC50: > 32 µM (inactive)
Cannabinoid receptor 1 [12]
  IC50: > 32 µM (inactive)
Cannabinoid receptor 2 [13]
  EC50: > 32 µM (inactive)
[14]
  IC50: > 32 µM (inactive)

## CO[C@@]12[C@H](COC(N)=O)C3=C(C(=O)C(C)=C(N)C3=O)N1C[C@H]1[C@@H]2N1C (stereo partly drawn) [PORFIROMYCIN]
[15]
  EC50: 6.8 µM (active)
SN12K1
  GI50: 3.9 µM (inactive)
[16]
  CC50: 1.32 µM (active)
Cells [17]
  IC50: 0.65 µM (active)
[18]
  EC50: < 0.06 µM (active)
HEK293
  AC50: 4.01 µM (active)
[19]
  CC50: > 20 µM (active)
P388
  GI50: 1.88 µM (inactive)
[20]
  EC50: < 0.1 µM (active)
[21]
  CC50: 28.3 µM (active)
Cells [22]
  EC50: 0.088 µM (active)
Streptococcus
  EC50: < 0.06 µM (active)
P388/ADR
  GI50: 7.74 µM (inactive)

## C[n+]1ccccc1/C=C1\Sc2ccccc2N1CCO
[23]
  IC50: 2.22 µM (active)
[24]
  IC50: 2.53 µM (active)
[25]
  IC50: 1.08 µM (active)
[26]
  IC50: > 100 µM (inactive)

## N=C(N)NC(=O)c1nc(Cl)c(N)nc1N
Trypsin
  AC50: 9.3 µM (active)

## COc1cc2c(cc1OC)C(c1ccc(-c3ccc(Cl)cc3Cl)o1)=NCC2
[7]
  EC50: > 32 µM (inactive)
[27]
  EC50: > 300 µM (not active)
[28]
  EC50: > 300 µM (not active)

## COc1ccc(S(=O)(=O)N2CCOCC2)cc1NC(=O)c1sc2cccc(F)c2c1C
[8]
  EC50: > 32 µM (inactive)
[9]
  EC50: > 32 µM (inactive)
Cannabinoid receptor 2 [10]
  IC50: > 32 µM (inactive)
Cannabinoid receptor 1 [11]
  EC50: > 32 µM (inactive)
Cannabinoid receptor 1 [12]
  IC50: > 32 µM (inactive)
Cannabinoid receptor 2 [13]
  EC50: > 32 µM (inactive)
[14]
  IC50: > 32 µM (inactive)

## C=CCN1C(=O)NC2(O)C(=O)c3ccccc3C12O (stereo not drawn)
[4]
  IC50: 12.7 µM (active)
[6]
  IC50: 56.3 µM (active)

## Cc1cccc2c1-c1sc(C(=O)NCCCN3CCCC(C)C3)cc1CO2 (stereo not drawn)
[29]
  AC50: 90.1 µM (active)
Vero [30]
  CC50: 6.26 µM (active)
[31]
  IC50: 6 µM (active)
Vero [32]
  CC50: 4.45 µM (active)
Vero [33]
  CC50: 19.4 µM (active)
[34]
  IC50: > 20 µM (inactive)

## O=C(Nc1ccccc1C(=O)O)c1ccccc1
Estrogen receptor beta
  IC50: > 50 µM (not active)
Bcl-2-like protein 10
  IC50: > 100 µM (inactive)
